{"source": "patent US6969609B1", "about": "(priority 1998, dated 2005)", "tested_on": "CAP-M8-specific CD8^+ effector T-cell line", "type": "cell-based, murine", "data": [{"substance": "TNF-α", "values": [{"measurement": "increase in peptide-specific proliferation over unmanipulated DC", "value": 28, "unit": "%"}]}]}
